Test results taken from the supplement of paper PMC11061612.

How the values were obtained:
Assay in all cases: Bliss excess, mean over the matrix (fraction); higher = more synergy
[1] = test system: EM-2 (Chronic Myelogenous Leukemia)
Procedure, shortened: (§1)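 Bliss excess equals the observed combination effect minus the expected value EA + EB − EA·EB, where EA and EB are the effects of each agent alone. Combination Emax is the second-highest inhibition within the matrix. Inhibition was scaled from CellTiter-Glo 2.0 luminescence, with 0 set by vehicle wells and 1 by blank wells, after 72 hours of two-drug dosing of cells plated in 1536-well plates.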

[2] = test system: JiyoyeP-2003 (Burkitt's Lymphoma)
Procedure, shortened: as §1

[3] = test system: SN12C (Kidney Carcinoma)
Procedure, shortened: as §1

[4] = test system: C3A (Hepatocellular Carcinoma)
Procedure, shortened: as §1

[5] = test system: KATOIII (Gastric Carcinoma)
Procedure, shortened: as §1

[6] = test system: IGR-1 (Melanoma)
Procedure, shortened: as §1

[7] = test system: KM-H2 (Hodgkin's Lymphoma)
Procedure, shortened: as §1

[8] = test system: KARPAS-620 (Plasma Cell Myeloma)
Procedure, shortened: as §1

[9] = test system: MDA-MB-157 (Breast Carcinoma)
Procedure, shortened: as §1

[10] = test system: MFH-ino (Other Solid Carcinomas)
Procedure, shortened: as §1

[11] = test system: HPAC (Pancreatic Carcinoma)
Procedure, shortened: as §1

[12] = test system: NCI-H1793 (Lung Adenocarcinoma)
Procedure, shortened: as §1

[13] = test system: 697 (B-Lymphoblastic Leukemia)
Procedure, shortened: as §1

[14] = test system: NALM-6 (B-Lymphoblastic Leukemia)
Procedure, shortened: as §1

[15] = test system: SNU-C5 (Colorectal Carcinoma)
Procedure, shortened: as §1

[16] = test system: CAL-78 (Chondrosarcoma)
Procedure, shortened: as §1

[17] = test system: MDA-MB-231 (Breast Carcinoma)
Procedure, shortened: as §1

[18] = test system: SW780 (Bladder Carcinoma)
Procedure, shortened: as §1

[19] = test system: G-292-Clone-A141B1 (Osteosarcoma)
Procedure, shortened: as §1

[20] = test system: CFPAC-1 (Pancreatic Carcinoma)
Procedure, shortened: as §1

Row | SMILES | Bliss excess [1] | Bliss excess [2] | Bliss excess [3] | Bliss excess [4] | Bliss excess [5] | Bliss excess [6] | Bliss excess [7] | Bliss excess [8] | Bliss excess [9] | Bliss excess [10] | Bliss excess [11] | Bliss excess [12] | Bliss excess [13] | Bliss excess [14] | Bliss excess [15] | Bliss excess [16] | Bliss excess [17] | Bliss excess [18] | Bliss excess [19] | Bliss excess [20]
1 | CC(=O)c1c(C)c2cnc(Nc3ccc(N4CCNCC4)cn3)nc2n(C2CCCC2)c1=O [Palbociclib] + Cc1c2c(nn1C)CSCc1cc(n(C)n1)CSc1cc(c3ccccc3c1)OCCCc1c(C(=O)O)n(C)c3c-2c(Cl)ccc13 [AZD5991] (first compound max 10 µM, 7x7, partner max 1 µM) | -0.021 | -0.0436 | -0.0358 | 0.0027 | 0.0505 | 0.0047 | -0.0228 | 0.0443 | -0.0408 | -0.042 | -0.0423 | -0.0299 | -0.0709 | 0.0147 | -0.0377 | -0.0395 | -0.0424 | -0.0441 | -0.0371 | -0.0063
2 | COc1cccc(OCCCN)c1-c1cc(Nc2cnc(C#N)cn2)n[nH]1 [Prexasertib] + C[C@@H]1COCCN1C2=NC(=NC(=C2)C3(CC3)[S@](=N)(=O)C)C4=C5C=CNC5=NC=C4 [AZD6738] (first compound max 1 µM, 7x7, partner max 10 µM) | -0.0344 | -0.0065 | 0.0012 | -0.034 | 0.0124 | -0.0091 | -0.0214 | -0.0375 | -0.0256 | 0.0457 | -0.0351 | -0.0106 | 0.0031 | -0.0522 | -0.0143 | -0.0331 | 0.0988 | 0.0009 | 0.0477 | -0.0284
3 | Cc1c2c(nn1C)CSCc1cc(n(C)n1)CSc1cc(c3ccccc3c1)OCCCc1c(C(=O)O)n(C)c3c-2c(Cl)ccc13 [AZD5991] + CN(C)CCCOc1ccc(-c2ccc3ncc4c(c3c2)n(C2CCOCC2)c(=O)n4C)cn1 [AZD0156] (first compound max 1 µM, 7x7, partner max 1 µM) | -0.0436 | -0.0359 | -0.0161 | -0.0266 | -0.0068 | -0.0219 | -0.0139 | 0.02 | -0.0169 | -0.0286 | 0.0384 | 0.0332 | -0.0468 | 0.0032 | 0.0157 | -0.0212 | -0.0133 | -0.0103 | -0.025 | 0.0066
4 | C[C@@H](c1ccc2nccn2c1)n1nnc2ncc(-c3cnn(C)c3)nc21 [Savolitinib] + Cc1c2c(nn1C)CSCc1cc(n(C)n1)CSc1cc(c3ccccc3c1)OCCCc1c(C(=O)O)n(C)c3c-2c(Cl)ccc13 [AZD5991] (first compound max 1 µM, 7x7, partner max 1 µM) | -0.0401 | -0.0034 | -0.0535 | -0.0229 | -0.0149 | -0.0112 | -0.0286 | -0.049 | -0.0501 | -0.0572 | -0.0586 | -0.0351 | -0.0516 | -0.0141 | -0.05 | -0.117 | -0.0186 | -0.0487 | -0.0381 | -0.0875
5 | COc1cccc(OCCCN)c1-c1cc(Nc2cnc(C#N)cn2)n[nH]1 [Prexasertib] + O=C(c1cc(Cc2n[nH]c(=O)c3ccccc23)ccc1F)N1CCN(C(=O)C2CC2)CC1 [Olaparib] (first compound max 1 µM, 7x7, partner max 10 µM) | 0.0164 | -0.0421 | -0.0425 | -0.0461 | -0.149 | 0.0102 | -0.0611 | -0.046 | -0.104 | -0.0326 | -0.149 | -0.0106 | 0.0371 | -0.0087 | -0.109 | -0.0535 | -0.127 | -0.009 | -0.0443 | -0.0834
6 | Cc1c2c(nn1C)CSCc1cc(n(C)n1)CSc1cc(c3ccccc3c1)OCCCc1c(C(=O)O)n(C)c3c-2c(Cl)ccc13 [AZD5991] + C[C@@H]1COCCN1C2=NC(=NC(=C2)C3(CC3)[S@](=N)(=O)C)C4=C5C=CNC5=NC=C4 [AZD6738] (first compound max 1 µM, 7x7, partner max 10 µM) | 0.0299 | 0.0159 | -0.0144 | 0.0412 | -0.0192 | 0.105 | 0.0236 | 0.0243 | -0.0076 | 0.0319 | 0.0409 | 0.0097 | 0.0058 | -0.0114 | -0.011 | 0.0335 | 0.0132 | 0.0324 | -0.001 | 0.0442
7 | Cc1cc2ncnn2cc1Nc1ncc2c(n1)n(C1CCOCC1)c(=O)n2C [AZD7648] + CCN(CCO)CCCOc1ccc2c(Nc3cc(CC(=O)Nc4cccc(F)c4)[nH]n3)ncnc2c1 [AZD2811] (first compound max 10 µM, 7x7, partner max 1 µM) | -0.073 | 0.0829 | -0.01 | 0.0219 | -0.0526 | -0.0224 | 0.0507 | 0.0088 | 0.0572 | -0.0094 | -0.032 | -0.005 | 0.018 | -0.0358 | 0.0093 | -0.0053 | 0.0014 | -0.018 | 0.0147 | 0.0181
8 | CN(CCO)CC[C@H](CSc1ccccc1)Nc1ccc(S(=O)(=O)NC(=O)c2ccc(N3CCC([C@@H](O)c4ccccc4-c4ccc(Cl)cc4)CC3)cc2)cc1S(=O)(=O)C(F)(F)F [AZD4320] + C[C@@H]1COCCN1C2=NC(=NC(=C2)C3(CC3)[S@](=N)(=O)C)C4=C5C=CNC5=NC=C4 [AZD6738] (first compound max 1 µM, 7x7, partner max 10 µM) | 0.005 | -0.0334 | -0.0499 | -0.016 | -0.0397 | 0.0464 | 0.0381 | -0.0028 | -0.0254 | -0.0785 | -0.007 | -0.0272 | 0.013 | 0.0379 | -0.0131 | 0.0071 | -0.0571 | -0.0478 | -0.0265 | -0.0077
9 | Cc1c2c(nn1C)CSCc1cc(n(C)n1)CSc1cc(c3ccccc3c1)OCCCc1c(C(=O)O)n(C)c3c-2c(Cl)ccc13 [AZD5991] + Cn1cnc2c(F)c(Nc3ccc(Br)cc3Cl)c(C(=O)NOCCO)cc21 [Selumetinib] (first compound max 1 µM, 7x7, partner max 3 µM) | -0.0053 | 0.0039 | -0.0425 | -0.0476 | -0.0085 | 0.0239 | 0.0029 | 0.0919 | -0.0098 | -0.0311 | 0.005 | 0.0133 | -0.0462 | 0.0165 | -0.0107 | -0.0288 | 0.0135 | 0.0631 | -0.0558 | 0.0044
10 | COc1cccc(OCCCN)c1-c1cc(Nc2cnc(C#N)cn2)n[nH]1 [Prexasertib] + Cc1cc2ncnn2cc1Nc1ncc2c(n1)n(C1CCOCC1)c(=O)n2C [AZD7648] (first compound max 1 µM, 7x7, partner max 10 µM) | -0.0274 | 0.017 | -0.0816 | -0.0264 | 0.0048 | 0.0116 | -0.023 | 0.0083 | -0.0594 | -0.0301 | -0.0074 | 0.0257 | -0.0293 | -0.044 | -0.0495 | -0.0473 | 0.0128 | 0.001 | -0.049 | -0.0398
11 | NC1(C(=O)N[C@@H](CCO)c2ccc(Cl)cc2)CCN(c2ncnc3[nH]ccc23)CC1 [Capivasertib] + CC(=O)c1c(C)c2cnc(Nc3ccc(N4CCNCC4)cn3)nc2n(C2CCCC2)c1=O [Palbociclib] (first compound max 10 µM, 7x7, partner max 10 µM) | -0.0552 | 0.0203 | -0.0265 | 0.0164 | -0.0242 | -0.0028 | 0.0484 | 0.0171 | 0.0439 | -0.0353 | 0.0004 | -0.0287 | -0.114 | -0.0107 | -0.0112 | -0.0424 | -0.0024 | -0.0119 | 0.0166 | -0.0758
12 | CCN(CCO)CCCOc1ccc2c(Nc3cc(CC(=O)Nc4cccc(F)c4)[nH]n3)ncnc2c1 [AZD2811] + C[C@@H]1COCCN1C2=NC(=NC(=C2)C3(CC3)[S@](=N)(=O)C)C4=C5C=CNC5=NC=C4 [AZD6738] (first compound max 1 µM, 7x7, partner max 10 µM) | -0.0433 | 0.0773 | -0.0641 | -0.0117 | -0.0477 | 0.0315 | -0.0249 | -0.0121 | 0.0031 | -0.0878 | -0.0244 | -0.0341 | 0.0013 | -0.0435 | -0.0418 | -0.0799 | -0.103 | -0.0262 | -0.12 | -0.0932
13 | CN(CCO)CC[C@H](CSc1ccccc1)Nc1ccc(S(=O)(=O)NC(=O)c2ccc(N3CCC([C@@H](O)c4ccccc4-c4ccc(Cl)cc4)CC3)cc2)cc1S(=O)(=O)C(F)(F)F [AZD4320] + Cc1cc2ncnn2cc1Nc1ncc2c(n1)n(C1CCOCC1)c(=O)n2C [AZD7648] (first compound max 1 µM, 7x7, partner max 10 µM) | 0.0184 | -0.0322 | -0.0578 | -0.0546 | -0.0343 | -0.0137 | -0.0231 | 0.0178 | -0.0225 | -0.0545 | -0.0292 | 0.0025 | -0.0305 | -0.0061 | -0.0257 | -0.0388 | -0.0082 | -0.0578 | -0.032 | -0.0345
14 | Cc1c2c(nn1C)CSCc1cc(n(C)n1)CSc1cc(c3ccccc3c1)OCCCc1c(C(=O)O)n(C)c3c-2c(Cl)ccc13 [AZD5991] + CCN(CCO)CCCOc1ccc2c(Nc3cc(CC(=O)Nc4cccc(F)c4)[nH]n3)ncnc2c1 [AZD2811] (first compound max 1 µM, 7x7, partner max 1 µM) | -0.0729 | 0.0917 | 0.0191 | 0.0494 | -0.0687 | 0.0316 | 0.0654 | 0.066 | 0.078 | 0.0053 | 0.0104 | -0.0255 | -0.0039 | -0.0839 | 0.0247 | -0.0228 | 0.0604 | 0.0188 | -0.021 | -0.0148
